For the assay, the target named is TRK A (Homo sapiens (Human), UniProt P04629). Kind of assay: HotSpot assay platform, radiometric kinase inhibition. As to conditions: 100 μM ATP, class symbol. Type of assay: biochemical. The protocol:
The HotSpot assay platform was used to measure kinase/inhibitor interactions as described in Anastassiadis et al., Nat Biotechnol. 29:1039-45, 2011. In brief, for each reaction, kinase and substrate were mixed in a buffer containing 20 mM HEPES (pH 7.5), 10 mM MgCl2, 1 mM EGTA, 0.02% Brij35, 0.02 mg/mL BSA, 0.1 mM Na3VO4, 2 mM DTT, and 1% DMSO. Compounds were then added to each reaction mixture. After a 20-min incubation, ATP (Sigma-Aldrich) and [γ-33P] ATP (PerkinElmer) were added at a final total concentration of 100 μM. Reactions were carried out at room temperature for 2 h and spotted onto P81 ion exchange cellulose chromatography paper (Whatman). Filter paper was washed in 0.75% phosphoric acid to remove unincorporated ATP. The percent remaining kinase activity relative to a vehicle-containing (DMSO) kinase reaction was calculated for each kinase/inhibitor pair. Outliers were identified and removed as described in Anastassiadis et al., Nat Biotechnol. 29:1039-45, 2011. IC50 values were calculated using Prism 5 (GraphPad).
Sequence of TRK A (P04629 33-796): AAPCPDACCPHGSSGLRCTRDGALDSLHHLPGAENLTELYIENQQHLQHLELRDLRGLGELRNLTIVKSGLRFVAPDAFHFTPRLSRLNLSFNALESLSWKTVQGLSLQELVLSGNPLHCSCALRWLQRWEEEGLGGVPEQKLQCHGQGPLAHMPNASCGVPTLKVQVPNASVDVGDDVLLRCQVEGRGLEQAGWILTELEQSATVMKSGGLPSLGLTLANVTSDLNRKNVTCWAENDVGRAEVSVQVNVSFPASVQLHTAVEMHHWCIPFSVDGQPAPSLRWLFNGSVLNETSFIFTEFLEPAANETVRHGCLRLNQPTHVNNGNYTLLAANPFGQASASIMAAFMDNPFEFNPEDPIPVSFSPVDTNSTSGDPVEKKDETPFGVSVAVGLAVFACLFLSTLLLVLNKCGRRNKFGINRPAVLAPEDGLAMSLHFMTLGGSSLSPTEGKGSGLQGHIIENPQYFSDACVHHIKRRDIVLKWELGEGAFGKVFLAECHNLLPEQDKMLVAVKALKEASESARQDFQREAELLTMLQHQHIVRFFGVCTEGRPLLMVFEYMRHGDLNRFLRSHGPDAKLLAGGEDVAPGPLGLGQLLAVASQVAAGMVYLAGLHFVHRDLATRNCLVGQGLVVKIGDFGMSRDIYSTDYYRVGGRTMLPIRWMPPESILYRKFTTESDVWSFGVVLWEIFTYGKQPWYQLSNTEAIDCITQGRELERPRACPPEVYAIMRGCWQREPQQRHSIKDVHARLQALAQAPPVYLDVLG
With `C[C@@H]1CCc2ncc(F)cc2N2CCC[C@@H]2c2ccn3ncc(c3n2)C(=O)N1` (single isomer, unassigned) [Compound 16-11], the IC50 – broadly, the concentration at which inhibition is half-maximal – was > 1 µM.

Regarding `C[C@@H]1CCc2ncc(F)cc2[C@@H]2[C@@H]3[C@H](CN2c2ccn4ncc(c4n2)C(=O)N1)C3(C)C` [Compound 24-11], the IC50 was > 1 µM. On to `C=C1c2ncc(F)cc2[C@H]2[C@@H]3C[C@@H]3CN2c2ccn3ncc(c3n2)C(=O)N[C@@H]1C` (single isomer, unassigned) [Compound 21-4], for which the IC50 is < 0.1 µM. In turn, `C[C@@H]1CCc2ncc(F)cc2N2CCC(=O)N2c2ccn3ncc(c3n2)C(=O)N1` [Compound 5-6] had an IC50 of 0.1 to 1 µM. Regarding `CC1c2ncc(F)cc2[C@H]2CCCN2c2ccn3ncc(c3n2)C(=O)N[C@@H]1C` (some centres unmarked) [Compound 11-6], the IC50 is < 0.1 µM. As to `O=C1N[C@H](C2CC2)CCc2ncc(F)cc2[C@@H]2[C@H]3C[C@H]3CN2c2ccn3ncc1c3n2` [Compound 20-6], the IC50 was > 1 µM. Next, `C[C@@H]1CCc2cnc(F)cc2C2CCCN2c2ccc3ncc(n3n2)C(=O)N1` (some centres unmarked) [Compound 12-12]: > 1 µM. Next, `C[C@@H]1CCc2ncc(F)cc2[C@@H]2[C@H]3C[C@H]3CN2c2ccn3ncc(c3n2)C(=O)N1` [Compound 18-12]: > 1 µM. As to `O=C1N[C@H](C2CC2)CCc2ncc(F)cc2[C@H]2[C@@H]3C[C@@H]3CN2c2ccn3ncc1c3n2` [Compound 20-5], the IC50 was < 0.1 µM.

Turning to `C[C@@H]1CCn2cc(nn2)[C@@H]2CCCN2c2ccn3ncc(c3n2)C(=O)N1` [Compound 14-7], the IC50 was > 1 µM. For `C[C@@H]1/C=C\c2ncc(F)cc2[C@H]2CCCN2c2ccn3ncc(c3n2)C(=O)N1` [Compound 10-5] the value was < 0.1 µM; for `C[C@@H]1CCc2ncc(F)cc2[C@H]2[C@@H]3[C@H](CN2c2ccn4ncc(c4n2)C(=O)N1)C3(C)C` [Compound 17-12], > 1 µM. `C[C@@H]1CCc2ncncc2[C@@H]2CCCN2c2ccc3ncc(n3n2)C(=O)N1` [Compound 13-12] gave an IC50 of 0.1 to 1 µM. Turning to `C[C@@H]1CCc2ncc(F)cc2N2CCCN2c2ccn3ncc(c3n2)C(=O)N1` [Compound 1-8, (R,1^3E,1^4E)-3^5-fluoro-6-methyl-7-aza-1(5,3)-pyrazolo[1,5-a]pyrimidine-3(3,2)-pyridina-2(1,2)-pyrazalidinacyclooctaphan-8-one], the IC50 is < 0.1 µM. Regarding `C=C1c2ncc(F)cc2[C@@H]2[C@H]3C[C@H]3CN2c2ccn3ncc(c3n2)C(=O)N[C@@H]1C` (single isomer, unassigned) [Compound 21-5], the IC50 lay within 0.1 to 1 µM. As to `C[C@@H]1CCc2ncc(F)cc2[C@@H]2[C@H]3[C@@H](CN2c2ccn4ncc(c4n2)C(=O)N1)C3(C)C` [Compound 17-13], the IC50 is > 1 µM.

For `C[C@H]1CNC(=O)c2cnn3ccc(nc23)N2C[C@H]3C[C@H]3[C@@H]2c2cc(F)cn1c2=O` (single isomer, unassigned) [Compound 23-3], the IC50 was < 0.1 µM. Take `O=C1NC2(CCc3ncc(F)cc3[C@H]3[C@@H]4C[C@@H]4CN3c3ccn4ncc1c4n3)CC2` [Compound 19-5]: the IC50 was < 0.1 µM. In the case of `C=C1c2ncc(F)cc2[C@@H]2CCCN2c2ccn3ncc(c3n2)C(=O)N[C@@H]1C` [Compound 11-5], the IC50 was > 1 µM. Consider `C[C@H]1CNC(=O)c2cnn3ccc(nc23)N2C[C@@H]3C[C@@H]3[C@H]2c2cc(F)cn1c2=O` (single isomer, unassigned) [Compound 23-4], for which the IC50 was > 1 µM. With `C[C@@H]1/C=C\c2ncc(F)cc2[C@@H]2CCCN2c2ccn3ncc(c3n2)C(=O)N1` [Compound 10-6], the IC50 was in the range of 0.1 to 1 µM. Take `C[C@@H]1CCOc2ncc(F)cc2N2CCCN2c2ccn3ncc(c3n2)C(=O)N1` [Compound 4-3]: the IC50 is < 0.1 µM. For the compound `C[C@@H]1CCn2nncc2[C@H]2CCCN2c2ccn3ncc(c3n2)C(=O)N1` [Compound 15-10], the IC50 is > 1 µM. On to `C[C@@H]1CCc2ncc(F)cc2N2CC3(CC3)CN2c2ccn3ncc(c3n2)C(=O)N1` [Compound 6-10], for which the IC50 was < 0.1 µM.

On to `C[C@@H]1CCc2ncc(F)cc2N2CCC[C@H]2c2ccn3ncc(c3n2)C(=O)N1` (single isomer, unassigned) [Compound 16-10], for which the IC50 is > 1 µM. In the case of `C[C@@H]1CCc2ncncc2[C@H]2CCCN2c2ccc3ncc(n3n2)C(=O)N1` [Compound 13-11], the IC50 is < 0.1 µM. Consider `C[C@@H]1CCc2ccccc2N2CCCN2c2ccn3ncc(c3n2)C(=O)N1` [Compound 1-17, (R,1^3E,1^4E)-6-methyl-7-aza-1(5,3)-pyrazolo[1,5-a]pyrimidine-2(1,2)-pyrazolidina-3(1,2)-benzacyclooctaphan-8-one], for which the IC50 was < 0.1 µM. For `C[C@@H]1/C=C/c2ncc(F)cc2[C@H]2CCCN2c2ccn3ncc(c3n2)C(=O)N1` [Compound 9-7], the IC50 was < 0.1 µM.

Turning to `O=C1NC2(CCc3ncc(F)cc3[C@@H]3[C@H]4C[C@H]4CN3c3ccn4ncc1c4n3)CC2` [Compound 19-6], the IC50 is > 1 µM. As to `C[C@H]1CNC(=O)c2cnn3ccc(nc23)N2C[C@@H]3C[C@@H]3[C@H]2c2cc(F)cnc2O1` [Compound 22-7], the IC50 is > 1 µM.

For `C[C@@H]1CCn2cc(F)cc(c2=O)N2CCCN2c2ccn3ncc(c3n2)C(=O)N1` [Compound 3-3], the concentration for half-maximal inhibition (IC50) is > 1 µM. For `C[C@@H]1CCc2ncc(F)cc2[C@H]2[C@H]3[C@@H](CN2c2ccn4ncc(c4n2)C(=O)N1)C3(C)C` [Compound 24-10], the IC50 is < 0.1 µM.

`C[C@@H]1CCc2ncc(F)cc2[C@@H]2CCCN2c2ccc3ncc(n3n2)C(=O)N1` [Compound 7-12]: the IC50 was > 1 µM. `CC1(C)CCc2ncc(F)cc2C2CCCN2c2ccn3ncc(c3n2)NC1=O` (racemic) [Compound 8-8] showed an IC50 of 0.1 to 1 µM. For `C[C@@H]1CCc2ncc(F)cc2[C@H]2CCCN2c2ccc3ncc(n3n2)C(=O)N1` [Compound 7-11] the value was < 0.1 µM; for `C[C@@H]1CCn2cc(nn2)[C@H]2CCCN2c2ccn3ncc(c3n2)C(=O)N1` [Compound 14-6], > 1 µM; for `C[C@H]1CNC(=O)c2cnn3ccc(nc23)N2C[C@H]3C[C@H]3[C@@H]2c2cc(F)cnc2O1` [Compound 22-6], < 0.1 µM. For `C[C@@H]1CCc2ncc(F)cc2[C@H]2[C@@H]3C[C@@H]3CN2c2ccn3ncc(c3n2)C(=O)N1` [Compound 18-11] the value was < 0.1 µM.
